Measurements as given in patent publication US20210284647A1, “N-(3-(IMIDAZO[1,2-B]PYRIDAZIN-3-YLETHYNYL)-4-METHYLPHENYL)-5-PHENYL-4,5-DIHYDRO-1H-PYRAZOLE-1-CARBOXAMIDE DERIVATIVE, AND PHARMACEUTICAL COMPOSITION CONTAINING SAME AS ACTIVE INGREDIENT FOR TREATING KINASE-RELATED DISEASES” (VORONOIBIO INC., priority 2018, published 2021).
Structures can show the parent of a compound that is named as a salt.

How the values were obtained:
human GST-RIPK1 = molecular target: T1, human GST-RIPK1 (Homo sapiens, UniProt Q13546); assay: RIPK1 inhibitory activity (ADP-Glo kinase assay); format: biochemical; details: human GST-RIPK1 10 ng, ATP 50 uM, 25° C. for 4 hours, read-out: Enzyme IC50
T1 construct: GST; purchased signalchem
T1 sequence (Q13546 1-375 limits assumed): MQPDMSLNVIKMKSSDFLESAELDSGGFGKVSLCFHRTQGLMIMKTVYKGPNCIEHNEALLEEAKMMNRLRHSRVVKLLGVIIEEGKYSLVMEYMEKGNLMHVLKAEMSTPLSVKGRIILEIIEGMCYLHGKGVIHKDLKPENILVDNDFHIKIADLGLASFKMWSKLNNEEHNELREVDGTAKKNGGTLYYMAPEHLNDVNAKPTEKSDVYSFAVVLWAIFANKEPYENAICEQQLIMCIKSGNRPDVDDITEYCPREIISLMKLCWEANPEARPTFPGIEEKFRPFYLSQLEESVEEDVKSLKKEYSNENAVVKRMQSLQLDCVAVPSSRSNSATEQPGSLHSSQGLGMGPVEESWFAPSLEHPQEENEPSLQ
Protocol: The following experiment was performed to evaluate the inhibitory activity of the example compounds according to the present invention against RIPK1 (receptor-interacting serine/threonine protein kinase 1).
The example compound was reacted with the purified human GST-RIPK1 (1375, signalchem) enzyme to evaluate the enzyme inhibitory activity in the following manner. The composition of the reaction buffer used herein was as follows: 40 mM Tris-Hcl pH 7.4, 20 mM MgCl2, 0.5 mg/ml, BSA and 0.5 uM DTT. All the test materials were reacted in the reaction buffer. After reacting human GST-RIPK1 (1375, 10 ng), purified ATP (50 uM) and a specific substrate solution at 25° C. for 4 hours, the enzyme activity was confirmed using an in vitro ADP-Glo™ kinase assay (promega). Luminoscence was measured by reacting the enzyme activity reaction solution, ADP-Glo reaction solution, and enzyme activity detection solution at the ratio of 2:2:1. The degree of enzyme activity inhibition according to the treatment concentration of each compound was calculated based on the fluorescence of the enzyme activity of the solvent control not treated with the compound. At this time, the concentration of each compound inhibiting 50% of the enzyme activity was determined as IC50 (nM). IC50 of each compound was determined with three data sets and calculated using Prism (version 7.01, GraphPad) software.

[1] = tested on: human Jurkat T cells deficient in FADD; assay: Cell protection effect under apoptosis-inducing condition (TNF-α); format: cell-based; details: 40 ng of TNF-α, 50 hours, CellTiter-Glo, read-out: I2.I Cell EC50
Protocol: The cell protection effect of the compounds according to the present invention under the condition of inducing apoptosis by TNF-α was confirmed by […]. An apoptosis inducing factor such as TNF-α was treated to induce apoptosis of human Jurkat T cells deficient in FADD, to which the example compound was treated, and the cell protection effect was confirmed through the following analysis. Jurkat T cells deficient in FADD were cultured using RPMI medium (Hyclone) containing 10% FBS. When performing the test, the cells were seeded in a 96-well plate containing a medium suitable for the cell line at the density of 10,000 cells/well, and cultured in a 37° C. 5% CO2 incubator for 24 hours. Then, each well was treated with 40 ng of TNF-α, and the compounds prepared in the above examples were each treated with a 3-fold concentration gradient with 1 μM as the highest concentration. As the solvent control, dimethyl sulfoxide (DMSO) was treated at the concentration of 0.05% (v/v), which was the same concentration as that used for the compound treatment. Then, the cells were cultured for 50 hours. To confirm the degree of viability of the cells, a mixture provided in CellTiter-Gloe Luminescent Cell Viability Assay Kit (Promega) was added to the culture medium of the cells, followed by further culture at 37° C. for 30 minutes. Then, luminescence fluorescence was measured. The degree of inhibition of apoptosis induction according to the treatment concentration of each compound was calculated based on the fluorescence of the solvent control cells not treated with the compound. At this time, the concentration of each compound inhibiting 50% was determined as EC50 (μM). EC50 of each compound was calculated using Prism (version 7.01, GraphPad) software.

| IC50 (human GST-RIPK1) | EC50 [1] | SMILES |
| --- | --- | --- |
| 10.2 nM | 1.43 nM | O=C(Nc1cccc(C#Cc2cnc3cccnn23)c1)N1N=CCC1c1ccc(F)cc1 (stereo not shown) [Example 31, 5-(4-fluorophenyl)-N-(3-(imidazo[1,2-b]pyridazin-3-ylethynyl)phenyl)-4,5-dihydro-1H-pyrazole-1-carboxamide 2,2,2-trifluoroacetate] |
| 1.8 nM | 0.2 nM | Cc1ccc(NC(=O)N2N=CCC2c2ccccn2)cc1C#Cc1cnc2cccnn12 (stereo not shown) [Example 17, N-(3-(imidazo[1,2-b]pyridazin-3-ylethynyl)-4-methylphenyl)-5-(pyridin-2-yl)-4,5-dihydro-1H-pyrazole-1-carboxamide 2,2,2-trifluoroacetate] |
| 2.4 nM | 0.3 nM | Cc1ccc(NC(=O)N2N=CCC2c2ccncc2)cc1C#Cc1cnc2cccnn12 (stereo not shown) [Example 18, N-(3-(imidazo[1,2-b]pyridazin-3-ylethynyl)-4-methylphenyl)-5-(pyridin-4-yl)-4,5-dihydro-1H-pyrazole-1-carboxamide 2,2,2-trifluoroacetate] |
| 878 nM | 364 nM | O=C(Nc1cccc(C#Cc2cnc3cccnn23)c1)N1N=CC[C@@H]1c1cc(F)cc(F)c1 [Example 25, (R)-5-(3,5-difluorophenyl)-N-(3-(imidazo[1,2-b]pyridazin-3-ylethynyl)phenyl)-4,5-dihydro-1H-pyrazole-1-carboxamide 2,2,2-trifluoroacetate] |
| 19.5 nM | 0.41 nM | Cc1ccc(NC(=O)N2N=CC[C@H]2c2cccc(F)c2)cc1C#Cc1cnc2cccnn12 [Example 9, (S)-5-(3-fluorophenyl)-N-(3-(imidazo[1,2-b]pyridazin-3-ylethynyl)-4-methylphenyl)-4,5-dihydro-1H-pyrazole-1-carboxamide 2,2,2-trifluoroacetate] |
| 23.8 nM | 0.3 nM | O=C(Nc1cccc(C#Cc2cnc3cnccn23)c1)N1N=CCC1c1ccccc1 (stereo not shown) [Example 57, N-(3-(imidazo[1,2-a]pyrazin-3-ylethynyl)phenyl)-5-phenyl-4,5-dihydro-1H-pyrazole-1-carboxamide] |
| > 1000 nM | 32 nM | O=C(Nc1cccc(C#Cc2cnc3cccnn23)c1)N1N=CC[C@@H]1c1ccc(F)cc1 [Example 33, (R)-5-(4-fluorophenyl)-N-(3-(imidazo[1,2-b]pyridazin-3-ylethynyl)phenyl)-4,5-dihydro-1H-pyrazole-1-carboxamide 2,2,2-trifluoroacetate] |
| 801 nM | 326 nM | Cc1ccc(NC(=O)N2N=CC[C@@H]2c2cccc(F)c2)cc1C#Cc1cnc2cccnn12 [Example 10, (R)-5-(3-fluorophenyl)-N-(3-(imidazo[1,2-b]pyridazin-3-ylethynyl)-4-methylphenyl)-4,5-dihydro-1H-pyrazole-1-carboxamide 2,2,2-trifluoroacetate] |
| 4.56 nM | 0.4 nM | Cc1ccc(NC(=O)N2N=CC[C@H]2c2cc(F)cc(F)c2)cc1C#Cc1cnc2cccnn12 [Example 5, (S)-5-(3,5-difluorophenyl)-N-(3-(imidazo[1,2-b]pyridazin-3-ylethynyl)-4-methylphenyl)-4,5-dihydro-1H-pyrazole-1-carboxamide 2,2,2-trifluoroacetate] |
| 1.22 nM | 1.84 nM | O=C(Nc1cccc(C#Cc2cnc3cccnn23)c1)N1N=CCC1c1ccccn1 (stereo not shown) [Example 37, N-(3-(imidazo[1,2-b]pyridazin-3-ylethynyl)phenyl)-5-(pyridin-2-yl)-4,5-dihydro-1H-pyrazole-1-carboxamide 2,2,2-trifluoroacetate] |
| 1.8 nM | 0.05 nM | Cc1ccc(NC(=O)N2N=CCC2c2cccnc2)cc1C#Cc1cnc2cccnn12 (stereo not shown) [Example 16, N-(3-(imidazo[1,2-b]pyridazin-3-ylethynyl)-4-methylphenyl)-5-(pyridin-3-yl)-4,5-dihydro-1H-pyrazole-1-carboxamide 2,2,2-trifluoroacetate] |
| 1.1 nM | 106 nM | O=C(Nc1cccc(C#Cc2cnc3cccnn23)c1)N1N=CCC1c1ccncc1 (stereo not shown) [Example 38, N-(3-(imidazo[1,2-b]pyridazin-3-ylethynyl)phenyl)-5-(pyridin-4-yl)-4,5-dihydro-1H-pyrazole-1-carboxamide hydrochloride] |
| 30.6 nM | 0.22 nM | Cc1cc(Nc2cccn3c(C#Cc4cccc(NC(=O)N5N=CCC5c5ccccc5)c4)cnc23)n[nH]1 (stereo not shown) [Example 66, N-(3-((8-((5-methyl-1H-pyrazol-3-yl)amino)imidazo[1,2-a]pyridin-3-yl)ethynyl)phenyl)-5-phenyl-4,5-dihydro-1H-pyrazole-1-carboxamide 2,2,2-trifluoroacetate] |
| 4.83 nM | 0.63 nM | O=C(Nc1cccc(C#Cc2cnc3cccnn23)c1)N1N=CC[C@H]1c1ccc(F)cc1 [Example 32, (S)-5-(4-fluorophenyl)-N-(3-(imidazo[1,2-b]pyridazin-3-ylethynyl)phenyl)-4,5-dihydro-1H-pyrazole-1-carboxamide 2,2,2-trifluoroacetate] |
| 64.1 nM | 0.4 nM | CC(=O)Nc1cccn2c(C#Cc3cccc(NC(=O)N4N=CCC4c4ccccc4)c3)cnc12 (stereo not shown) [Example 60, N-(3-((8-acetamidoimidazo[1,2-a]pyridin-3-yl)ethynyl)phenyl)-5-phenyl-4,5-dihydro-1H-pyrazole-1-carboxamide] |
| 13.4 nM | 1.6 nM | O=C(Nc1cccc(C#Cc2cnc3ccccn23)c1)N1N=CCC1c1ccccc1 (stereo not shown) [Example 55, N-(3-(imidazo[1,2-a]pyridin-3-ylethynyl)phenyl)-5-phenyl-4,5-dihydro-1H-pyrazole-1-carboxamide] |
| 205 nM | 97.7 nM | O=C(Nc1ccc(F)c(C#Cc2cnc3cccnn23)c1)N1N=CC[C@@H]1c1ccccc1 [Example 46, (R)—N-(4-fluoro-3-(imidazo[1,2-b]pyridazin-3-ylethynyl)phenyl)-5-phenyl-4,5-dihydro-1H-pyrazole-1-carboxamide 2,2,2-trifluoroacetate] |
| 19.1 nM | 0.2 nM | Cc1ccc(NC(=O)N2N=CC[C@H]2c2ccc(F)cc2)cc1C#Cc1cnc2cccnn12 [Example 12, (S)-5-(4-fluorophenyl)-N-(3-(imidazo[1,2-b]pyridazin-3-ylethynyl)-4-methylphenyl)-4,5-dihydro-1H-pyrazole-1-carboxamide 2,2,2-trifluoroacetate] |
| 221 nM | 314 nM | Cc1ccc(NC(=O)N2N=CC[C@@H]2c2ccccc2)cc1C#Cc1cnc2cccnn12 [Example 3, (R)—N-(3-(imidazo[1,2-b]pyridazin-3-ylethynyl)-4-methylphenyl)-5-phenyl-4,5-dihydro-1H-pyrazole-1-carboxamide 2,2,2-trifluoroacetate] |
| 30.5 nM | 0.3 nM | O=C(Nc1cccc(C#Cc2cnn3cccnc23)c1)N1N=CCC1c1ccccc1 (stereo not shown) [Example 56, 5-phenyl-N-(3-(pyrazolo[1,5-a]pyrimidin-3-ylethynyl)phenyl)-4,5-dihydro-1H--pyrazole-1-carboxamide] |
|  | 0.17 nM | Cc1ccc(NC(=O)N2N=CCC2c2ccccc2)cc1C#Cc1cnc2cccnn12 (stereo not shown) [Example 1, N-(3-(imidazo[1,2-b]pyridazin-3-ylethynyl)-4-methylphenyl)-5-phenyl-4,5-dihydro-1H-pyrazole-1-carboxamide 2,2,2-trifluoroacetate] |

| SMILES | IC50 (human GST-RIPK1) | EC50 [1] |
| --- | --- | --- |
| O=C(Nc1ccc(F)c(C#Cc2cnc3cccnn23)c1)N1N=CCC1c1ccccc1 (stereo not shown) [Example 44, N-(4-fluoro-3-(imidazo[1,2-b]pyridazin-3-ylethynyl)phenyl)-5-phenyl-4,5-dihydro-1H-pyrazole-1-carboxamide 2,2,2-trifluoroacetate] | 18.1 nM | 0.37 nM |
